Source: patent US20090226398A1, “ANTI-VIRAL COMPOUNDS, COMPOSITIONS, AND METHODS OF USE” (Genelabs Technologies, Inc., priority 2008, published 2009)

System: HCV replication
Assay: Replicon Assay (Huh-lucubineo-ET cells, luciferase readout)
Type: cell-based
Settings: Hepatitis C virus; ET (Huh-lucubineo-ET) HCV replicon cell line; luciferase activity 48-72 hours after compound addition; 6 dilutions
Experimental: A cell line, ET (Huh-lucubineo-ET) was used for screening of compounds of the present invention for inhibition of HCV replication. The ET cell line was stably transfected with RNA transcripts harboring a I389luc-ubi-neo/NS3-3′/ET; replicon with firefly luciferase-ubiquitin-neomycin phosphotransferase fusion protein and EMCV-IRES driven NS3-5B polyprotein containing the cell culture adaptive mutations (E1202G; T1280I; K1846T) (Krieger at al, 2001 and unpublished). The ET cells were grown in DMEM, supplemented with 10% fetal calf serum, 2 mM Glutamine, Penicillin (100 IU/mL)/Streptomycin (100 μg/mL), 1× nonessential amino acids, and 250 μg/mL G418 (“Geneticin”). They were all available through Life Technologies (Bethesda, Md.). The cells were plated at 0.5−1.0×10^4 cells/well in the 96 well plates and incubated for 24 hrs before adding the test compounds. The compounds were then added to the cells to achieve a final concentration of 5 or 50 μM. Luciferase activity was measured 48-72 hours later by adding a lysis buffer and the substrate (Catalog number Glo-lysis buffer E2661 and Bright-Glo luciferase system E2620 Promega, Madison, Wis.). Cells should not be too confluent during the assay. Percent inhibition of replication was plotted relative to no compound control. For EC50 (effective concentration at which 50% of the maximum inhibition is observed) determinations, 6 dilutions of each compound were used. Compounds were typically diluted 3 fold to span a concentration range of 250 fold. EC50 and similarly TC50 values were calculated by fitting % inhibition at each concentration to the following equation:
% inhibition=100%/[(EC50/[I])^b+1]
where b is Hill's coefficient.

Cn1ccc2cc(-c3ccc(Cn4cc5nc(-c6cccc(F)c6F)nc-5cn4)nn3)ccc21 [Compound 216, 2-(2,3-Difluoro-phenyl)-5-[6-(1-methyl-1H-indol-5-yl)-pyridazin-3-ylmethyl]-5H-imidazo[4,5-d]pyridazine]
EC50: ≥ 50000 nM

CCOC(=O)CCc1ccc(-c2ccc(Cn3cc4nc(-c5cccc(F)c5F)nc-4cn3)nn2)cc1 [Compound 217, 3-(4-{6-[2-(2,3-Difluoro-phenyl)-imidazo[4,5-d]pyridazin-5-ylmethyl]-pyridazin-3-yl}-phenyl)-propionic acid ethyl ester]
EC50: 52000 nM

COc1cccc(-c2ccc(Cn3cc4nc(-c5cccc(F)c5F)nc-4cn3)nn2)c1 [Compound 218, 2-(2,3-Difluoro-phenyl)-5-[6-(3-methoxy-phenyl)-pyridazin-3-ylmethyl]-5H-imidazo[4,5-d]pyridazine]
EC50: ≥ 50000 nM

Fc1cccc(-c2nc3cnn(Cc4ccc(-c5ccc6c(c5)OCO6)nn4)cc-3n2)c1F [Compound 219, 5-(6-Benzo[1,3]dioxol-5-yl-pyridazin-3-ylmethyl)-2-(2,3-difluoro-phenyl)-5H-imidazo[4,5-d]pyridazine]
EC50: ≥ 50000 nM

CCCc1ccc(-c2ccc(Cn3cc4nc(-c5cccc(F)c5F)nc-4cn3)nn2)cc1 [Compound 220, 2-(2,3-Difluoro-phenyl)-5-[6-(4-propyl-phenyl)-pyridazin-3-ylmethyl]-5H-imidazo[4,5-d]pyridazine]
EC50: 520 nM

Cc1cccc(-c2ccc(Cn3cc4nc(-c5cccc(F)c5F)nc-4cn3)nn2)c1 [Compound 221, 2-(2,3-Difluoro-phenyl)-5-(6-m-tolyl-pyridazin-3-ylmethyl)-5H-imidazo[4,5-d]pyridazine]
EC50: ≥ 50000 nM

Fc1cccc(-c2ccc(Cn3cc4nc(-c5cccc(F)c5F)nc-4cn3)nn2)c1 [Compound 222, 2-(2,3-Difluoro-phenyl)-5-[6-(3-fluoro-phenyl)-pyridazin-3-ylmethyl]-5H-imidazo[4,5-d]pyridazine]
EC50: ≥ 50000 nM

CCCCOc1ccc(-c2ccc(Cn3cc4nc(-c5cccc(F)c5F)nc-4cn3)nn2)cc1 [Compound 223, 5-[6-(4-Butoxy-phenyl)-pyridazin-3-ylmethyl]-2-(2,3-difluoro-phenyl)-5H-imidazo[4,5-d]pyridazine]
EC50: 49000 nM

COc1ccc(-c2ccc(Cn3cc4nc(-c5cccc(F)c5F)nc-4cn3)c(C)n2)c(C(F)(F)F)c1 [Compound 224, 2-(2,3-Difluoro-phenyl)-5-[6-(4-methoxy-2-trifluoromethyl-phenyl)-2-methyl-pyridin-3-ylmethyl]-5H-imidazo[4,5-d]pyridazine]
EC50: 281 nM

Fc1cccc(-c2nc3cnn(Cc4ccc(-c5ccc(C(F)(F)F)cc5)cc4)cc-3n2)c1F [Compound 225, 2-(2,3-Difluoro-phenyl)-5-(4′-trifluoromethyl-biphenyl-4-ylmethyl)-5H-imidazo[4,5-d]pyridazine]
EC50: 13700 nM

CCCOc1ccc(-c2ccc(Cn3cc4nc(-c5cccc(F)c5F)nc-4cn3)nn2)c(C(F)(F)F)c1 [Compound 226, 2-(2,3-Difluoro-phenyl)-5-[6-(4-propoxy-2-trifluoromethyl-phenyl)-pyridazin-3-ylmethyl]-5H-imidazo[4,5-d]pyridazine]
EC50: 4 nM

Cc1ccc(-c2ccc(Cn3cc4nc(-c5cccc(F)c5F)nc-4cn3)nn2)c(Cl)c1 [Compound 227, 5-[6-(2-Chloro-4-methyl-phenyl)-pyridazin-3-ylmethyl]-2-(2,3-difluoro-phenyl)-5H-imidazo[4,5-d]pyridazine]
EC50: 97 nM

COc1ccc(-c2ccc(Cn3cc4nc(-c5cccc(F)c5F)nc-4cn3)nn2)c(Cl)c1 [Compound 228, 5-[6-(2-Chloro-4-methoxy-phenyl)-pyridazin-3-ylmethyl]-2-(2,3-difluoro-phenyl)-5H-imidazo[4,5-d]pyridazine]
EC50: 112 nM

Fc1cccc(-c2nc3cnn(Cc4ccc(-c5ccc(OC(F)(F)F)cc5)cc4)cc-3n2)c1F [Compound 229, 2-(2,3-Difluoro-phenyl)-5-(4′-trifluoromethoxy-biphenyl-4-ylmethyl)-5H-imidazo[4,5-d]pyridazine]
EC50: 8380 nM

Fc1cc(C(F)(F)F)ccc1-c1ccc(Cn2cc3nc(-c4cccc(F)c4F)nc-3cn2)cc1 [Compound 230, 2-(2,3-Difluoro-phenyl)-5-(2′-fluoro-4′-trifluoromethyl-biphenyl-4-ylmethyl)-5H-imidazo[4,5-d]pyridazine]
EC50: 3140 nM

CC(F)(F)COc1ccc(-c2ccc(Cn3cc4nc(-c5cccc(F)c5F)nc-4cn3)nn2)c(C(F)(F)F)c1 [Compound 231, 2-(2,3-Difluoro-phenyl)-5-{6-[4-(2,2-difluoro-propoxy)-2-trifluoromethyl-phenyl]-pyridazin-3-ylmethyl}-5H-imidazo[4,5-d]pyridazine]
EC50: 164 nM

CCCOc1ccc(-c2ccc(Cn3cc4nc(-c5cccc(F)c5F)nc-4cn3)c(N)n2)c(C(F)(F)F)c1 [Compound 232, 3-[2-(2,3-Difluoro-phenyl)-imidazo[4,5-d]pyridazin-5-ylmethyl]-6-(4-propoxy-2-trifluoromethyl-phenyl)-pyridin-2-ylamine]
EC50: 18 nM

CN(C)Cc1ccc(-c2ccc(Cn3cc4nc(-c5cccc(F)c5F)nc-4cn3)nn2)cc1 [Compound 233, (4-{6-[2-(2,3-Difluoro-phenyl)-imidazo[4,5-d]pyridazin-5-ylmethyl]-pyridazin-3-yl}-benzyl)-dimethyl-amine]
EC50: ≥ 50000 nM

CCCOc1ccc(-c2ccc(Cn3cc4nc(-c5cccc(F)c5F)nc-4cn3)cn2)c(C)c1 [Compound 234, 2-(2,3-Difluoro-phenyl)-5-[6-(2-methyl-4-propoxy-phenyl)-pyridin-3-ylmethyl]-5H-imidazo[4,5-d]pyridazine]
EC50: 1210 nM

COc1ccc(-c2ccc(Cn3cc4nc(-c5cccc(F)c5F)nc-4cn3)cn2)c(C(F)(F)F)c1 [Compound 235, 2-(2,3-Difluoro-phenyl)-5-[6-(4-methoxy-2-trifluoromethyl-phenyl)-pyridin-3-ylmethyl]-5H-imidazo[4,5-d]pyridazine]
EC50: 10 nM

Fc1cccc(-c2nc3cnn(Cc4ccc(-c5ccc(Cl)cc5C(F)(F)F)nc4)cc-3n2)c1F [Compound 236, 5-[6-(4-Chloro-2-trifluoromethyl-phenyl)-pyridin-3-ylmethyl]-2-(2,3-difluoro-phenyl)-5H-imidazo[4,5-d]pyridazine]
EC50: 15 nM

Fc1cccc(-c2nc3cnn(Cc4ccc(-c5ccc(C(F)(F)F)cc5Cl)nc4)cc-3n2)c1F [Compound 237, 5-[6-(2-Chloro-4-trifluoromethyl-phenyl)-pyridin-3-ylmethyl]-2-(2,3-difluoro-phenyl)-5H-imidazo[4,5-d]pyridazine]
EC50: 119 nM

COc1ccc(-c2ccc(Cn3cc4nc(-c5cccc(F)c5F)nc-4cn3)nn2)c(C(F)(F)F)c1 [Compound 238, 2-(2,3-Difluoro-phenyl)-5-[6-(4-methoxy-2-trifluoromethyl-phenyl)-pyridazin-3-ylmethyl]-5H-imidazo[4,5-d]pyridazine]
EC50: 6 nM

Cc1ccc(-c2ccc(Cn3cc4nc(-c5cccc(F)c5F)nc-4cn3)nc2)c(C(F)(F)F)c1 [Compound 239, 2-(2,3-Difluoro-phenyl)-5-[5-(4-methyl-2-trifluoromethyl-phenyl)-pyridin-2-ylmethyl]-5H-imidazo[4,5-d]pyridazine]
EC50: 63 nM
